Measurements taken from US8637474B2, “Receptor modulators exhibiting neuroprotective and memory enhancing activities” (The Hong Kong University of Science and Technology, priority 2007, dated 2014).
“Also recorded” adds a separate entry of the source.

How the values were obtained:
primary cortical neurons = assay: Cell toxicity test (LDH) on primary neurons; type: cell-based; details: 24 hours, all concentrations, maximum dose 70 μM
Description: FIG. 8. […] Primary cortical neurons were treated with different concentrations of DA001 for 24 hours.
This was performed to study the effects of the invention on primary neurons. Cortical neurons isolated from embryonic day 18 Spraque-Dawley rats were cultured in Neurobasal medium supplemented with 2% B27 and penicillin/streptomycin solution (Invitrogen). Primary neurons of 7 days in culture (7 DIV) were treated with various concentrations of the invention in the absence of B27 for 24 hours. Lactate dehydrogenases (LDH) was released into the medium and measured and calculated as percentage compared to 1% Triton X-100.

MC3 = MC3 (Homo sapiens, UniProt P41968); assay: Radioligand competition binding assay, MC3; details: MC3, DA001 10 μM, duplicate; read-out: % inhibition of control specific binding
Sequence of MC3 (P41968 whole entry): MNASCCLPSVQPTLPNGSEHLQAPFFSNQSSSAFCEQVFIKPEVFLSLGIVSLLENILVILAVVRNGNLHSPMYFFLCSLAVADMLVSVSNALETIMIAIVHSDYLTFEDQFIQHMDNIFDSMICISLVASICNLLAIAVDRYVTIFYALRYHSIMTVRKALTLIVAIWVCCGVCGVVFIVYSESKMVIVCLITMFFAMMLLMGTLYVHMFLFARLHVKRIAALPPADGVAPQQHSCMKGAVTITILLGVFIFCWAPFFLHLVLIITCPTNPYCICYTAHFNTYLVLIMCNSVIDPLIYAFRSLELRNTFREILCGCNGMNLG
Description: (§1) DA001 was evaluated against 109 receptor binding assays and 17 enzyme assays, comprising of selective, central and peripheral therapeutically-relevant targets. Radioligand competition assays were conducted whereby DA001 was tested at one concentration (10 μM) in duplicate. […] It could compete with the radioligand [^125I-NDP-alpha-melanocyte-stimulating hormone (α-MSH)] binding for MC1 and MC4 but not MC3 and MC5 nor the related family, the melanin concentrating hormone receptors (MCH1 and MCH2).

[1] = target: melanin concentrating hormone receptor MCH2 (Homo sapiens, UniProt Q969V1); assay: Radioligand competition binding assay, MCH2; details: MCH2, DA001 10 μM, duplicate; read-out: % inhibition of control specific binding
Sequence of melanin concentrating hormone receptor MCH2 (Q969V1 whole entry): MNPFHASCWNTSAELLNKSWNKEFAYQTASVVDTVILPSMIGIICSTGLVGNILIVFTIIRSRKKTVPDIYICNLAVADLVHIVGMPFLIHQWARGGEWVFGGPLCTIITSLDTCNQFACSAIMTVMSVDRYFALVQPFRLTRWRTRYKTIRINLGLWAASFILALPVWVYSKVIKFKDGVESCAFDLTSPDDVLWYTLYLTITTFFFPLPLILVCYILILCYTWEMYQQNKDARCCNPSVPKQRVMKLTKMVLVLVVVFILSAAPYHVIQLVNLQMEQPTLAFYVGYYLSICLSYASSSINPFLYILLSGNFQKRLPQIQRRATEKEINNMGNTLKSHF
Description: as §1

BDNF expression = assay: Real-time quantitative PCR, BDNF expression following NMDA treatment; type: cell-based, rat
Description: FIG. 20 illustrates that DA001 induces BDNF and NT-3 expression but not Bcl-2 or c-fos following NMDA treatment.
Cortical neurons were pre-treated with DA001 prior to being subjected to NMDA insults, after which total RNA was extracted at different time intervals after treatment. There was a 5-fold increase in BDNF expression after a 6 hour incubation period. BDNF expression remained ˜3-4 fold over the control (DMSO) 12-24 hours after treatment with DA001.
Total RNA was extracted followed by cDNA synthesis. Gene expression was normalized against home gene, hypoxanthine phosphoribosyltransferase 1 (HPRT1) and glyceraldehyde 3-phosphate dehydrogenase (GAPDH). Relative change in gene expression induced by DA001+H2O and DA001+NMDA was compared with the controls, DMSO+H2O and DMSO+NMDA, respectively.
Cortical neurons were pre-treated with DA001 after which the cells were subjected to NMDA insult. The expression of BDNF was measured at three different time intervals and compared to that of NT-3, Bcl-2 and c-fos. DA001 induced BDNF and NT-3 expression but not bcl-2 or c-fos under the same conditions. […]
Cortical neurons of 11DIV-12DIV were pre-incubated with DA001 or DMSO for 24hours. […] Real-time Quantitative PCR was performed using Power SYBR Green PCR Master Mix (Applied Biosystems) on the M×3000P Real-Time PCR System (Stratagene). […]

[2] = system: rat primary hippocampal neurons; assay: NMDA survival assay (LDH release), primary hippocampal neurons; type: cell-based; details: DA001 30 μM, NMDA 20 μM
Description: FIG. 6. DA001 protects against NMDA excitotoxicity in rat primary hippocampal neurons. Embryonic rat hippocampal neurons (11 DIV) were treated with NMDA (20 μM) in the absence or presence of DA001 (μM) or memantine (μM). LDH release in the medium was measured after overnight incubation and cell cytotoxicity was calculated in percentage when compared to solvent control (DMSO).
DA001 (at 30 μM) reduced cell death by ˜80%.
Primary cortical and hippocampal neurons were prepared from embryonic day 18 (E18) Sprague-Dawley rats. Neurons were plated on 24-well pate (TPP, Corning) at a density of 2×10^5 cells per well using Neurobasal medium (Invitrogen) supplemented with 2% B27 (Invitrogen). Neurons at 11-12 days in vitro (12DIV) were subjected to drug treatment. Neurons were pretreated with the test compound for 2 hours prior to NMDA treatment. 0.1 μM(+)-MK-801 Hydrogen Maleate (Sigma) was added as a positive control. Briefly, the neurons were rinsed with Locke's solution (5 mM potassium chloride, 128 mM sodium chloride, 2.7 mM calcium chloride, 1 mM di-sodium hydrogen orthophosphate, 5 mM HEPES and 10 mM glucose in Milli-Q water) without Mg^2+, and incubated with addition of glycine (10 μM) for 15 minutes. […] The cell death was assayed and quantified using the lactate dehydrogenase release assay (Roche) after 24 hours.

[3] = target: melanin concentrating hormone receptor MCH1 (Homo sapiens, UniProt Q99705); assay: Radioligand competition binding assay, MCH1; details: MCH1, DA001 10 μM, duplicate; read-out: % inhibition of control specific binding
Sequence of melanin concentrating hormone receptor MCH1 (Q99705 whole entry): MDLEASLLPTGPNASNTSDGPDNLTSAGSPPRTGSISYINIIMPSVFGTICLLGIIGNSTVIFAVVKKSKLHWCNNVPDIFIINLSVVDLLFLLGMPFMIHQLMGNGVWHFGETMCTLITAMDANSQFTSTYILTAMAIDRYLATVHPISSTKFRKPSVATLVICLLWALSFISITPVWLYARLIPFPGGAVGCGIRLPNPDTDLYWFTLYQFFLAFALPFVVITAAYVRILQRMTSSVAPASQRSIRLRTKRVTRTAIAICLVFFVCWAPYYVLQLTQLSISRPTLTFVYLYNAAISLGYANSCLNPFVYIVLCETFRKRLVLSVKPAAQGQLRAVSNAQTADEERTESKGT
Description: as §1

[4] = system: rat primary cortical neurons; assay: NMDA survival assay (LDH release), primary cortical neurons; type: cell-based; details: NMDA 20 μM; for reduction of cell death compared to DA001: compounds in μg/ml, FIG. 13
Description: FIG. 5 DA001 protects against NMDA excitotoxicity in rat cortical neurons. Embryonic rat cortical neurons (11DIV) were treated with NMDA (20 μM) in the absence or presence of TCM samples (μg/ml) or memantine (μM). Memantine is a known NMDA antagonist. LDH release in the medium was measured after overnight incubation and cell cytotoxicity was calculated as a percentage when compared to the solvent control, DMSO.
FIG. 12. Derivatives of DA001 rescue the cortical neurons from NMDA excitotoxicity. Embryonic rat cortical neurons (11DIV) were treated with NMDA (20 μM) in the absence or presence of DA001 or its derivatives (10 or 30 μM); LDH release in the medium after overnight or 24 hours incubation was measured and cell death was calculated as a percentage in comparison to DMSO, the solvent control. Data are expressed as mean±s.e.m. *=P<0.05.
FIG. 13. DA002 and DA021, both derivatives of DA001, reduced NMDA-induced excitotoxicity. Embryonic rat cortical neurons (11DIV) were treated with NMDA (20 μM) in the absence or presence of DA002 or DA021 (μg/ml). LDH release in the medium after overnight incubation was measured and cell cytotoxicity was calculated as a percentage in comparison to DMSO, the solvent control.
DA001 (at 10 μg/ml) reduced cell death by more than 60% compared to the DMSO control. Compound A0178 and memantine were included as negative and positive controls, respectively.
Memantine is an FDA-approved NMDA antagonist used for clinical indications such as dementia in Alzheimer's disease. Dose-dependant assays were performed for each compound and based on the resulting dose response curve, the corresponding EC50 for each compound was determined.
NMDA survival assays were performed to measure the degree of protection provided to cortical neuronal cells when treated with the novel compounds (at 30 μM, except DA026 at 10 μM) prior to NMDA insult.
Compounds derived from DA001 were tested for their ability to inhibit NMDA-induced excitotoxicity. Primary rat cortical neurons were subjected to NMDA insults in the presence and absence of the novel derivatives.
Cortical neurons were pre-treated with DA001 and subsequently subjected to varying concentrations of NMDA. Survival assays were then conducted to determine the ability of DA001 to effectively protect neuronal cells from NMDA-induced excitotoxicity.
LDH release into the medium was then measured.
Primary cortical and hippocampal neurons were prepared from embryonic day 18 (E18) Sprague-Dawley rats. Neurons were plated on 24-well pate (TPP, Corning) at a density of 2×10^5 cells per well using Neurobasal medium (Invitrogen) supplemented with 2% B27 (Invitrogen). […] The cell death was assayed and quantified using the lactate dehydrogenase release assay (Roche) after 24 hours. […]

[5] = target: melanocortin-1 (MC1) receptor (Homo sapiens, UniProt Q01726); assay: Radioligand competition binding assay, MC1
Sequence of melanocortin-1 (MC1) receptor (Q01726 whole entry): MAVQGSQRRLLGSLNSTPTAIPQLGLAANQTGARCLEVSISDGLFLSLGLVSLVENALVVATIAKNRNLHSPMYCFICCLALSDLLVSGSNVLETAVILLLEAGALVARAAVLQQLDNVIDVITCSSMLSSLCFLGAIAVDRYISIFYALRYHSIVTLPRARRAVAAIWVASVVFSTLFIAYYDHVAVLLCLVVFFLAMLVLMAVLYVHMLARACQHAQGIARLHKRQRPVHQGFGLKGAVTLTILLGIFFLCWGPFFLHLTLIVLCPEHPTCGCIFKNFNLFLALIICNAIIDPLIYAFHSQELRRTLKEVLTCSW
Description: as §1
(§2) To determine the IC50 for DA001 to inhibit α-MSH binding on MC1 and MC4 receptor, the compound was further characterized by a dose-dependent study. DA001 was evaluated with 8 concentrations on MC1 and MC4 receptor binding assays.
(§3) The specific ligand binding to the receptors is defined as the difference between the total binding and the nonspecific binding determined in the presence of an excess of unlabelled ligand. The results are expressed as a percent of control specific binding [(measured specific binding/control specific binding)×100] and as a percent inhibition of control specific binding {100−[(measured specific binding/control specific binding)×100]} obtained in the presence of DA001. The IC50 values (concentration causing a half-maximal inhibition of control specific binding) and Hill coefficients (nH) were determined by non-linear regression analysis of the competition curves generated with mean replicate values using Hill equation curve fitting (Y=D+[(A−D)/(1+(C/C50)nH)], where Y=specific binding, D=minimum specific binding, A=maximum specific binding, C=compound concentration, C50=IC50, and nH=slope factor). This analysis was performed using a software developed at Cerep (Hill software) and validated by comparison with data generated by the commercial software SigmaPlot® 4.0 for Windows® (© 1997 by SPSS Inc.).

MC5 = MC5 (Homo sapiens, UniProt P33032); assay: Radioligand competition binding assay, MC5; details: MC5, DA001 10 μM, duplicate; read-out: % inhibition of control specific binding
Sequence of MC5 (P33032 whole entry): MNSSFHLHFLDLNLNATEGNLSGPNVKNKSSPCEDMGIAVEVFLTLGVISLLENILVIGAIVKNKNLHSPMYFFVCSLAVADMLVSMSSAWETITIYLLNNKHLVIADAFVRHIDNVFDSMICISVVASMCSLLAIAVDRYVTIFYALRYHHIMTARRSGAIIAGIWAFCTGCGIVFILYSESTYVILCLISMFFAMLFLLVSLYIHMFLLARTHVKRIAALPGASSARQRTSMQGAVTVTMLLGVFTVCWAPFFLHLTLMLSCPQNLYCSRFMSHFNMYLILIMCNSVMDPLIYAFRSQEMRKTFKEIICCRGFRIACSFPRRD
Description: as §1

[6] = target: melanocortin-4 (MC4) receptor (Homo sapiens, UniProt P32245); assay: Radioligand competition binding assay, MC4
Sequence of melanocortin-4 (MC4) receptor (P32245 whole entry): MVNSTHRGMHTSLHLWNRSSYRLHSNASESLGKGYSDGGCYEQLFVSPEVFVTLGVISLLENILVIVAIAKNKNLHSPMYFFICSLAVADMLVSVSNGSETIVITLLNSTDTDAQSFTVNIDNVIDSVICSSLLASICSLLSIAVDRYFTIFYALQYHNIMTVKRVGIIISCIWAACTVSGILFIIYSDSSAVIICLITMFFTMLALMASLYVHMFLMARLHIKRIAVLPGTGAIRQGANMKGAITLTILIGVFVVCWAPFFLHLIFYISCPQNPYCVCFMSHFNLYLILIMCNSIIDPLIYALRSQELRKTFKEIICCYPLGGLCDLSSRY
Description: as §1, §2, §3

melatonin (MT1) receptor = melatonin (MT1) receptor (Homo sapiens, UniProt P48039); assay: Radioligand competition binding assay, MT1; details: MT1, DA001 10 μM, duplicate; read-out: % inhibition of control specific binding
Sequence of melatonin (MT1) receptor (P48039 whole entry): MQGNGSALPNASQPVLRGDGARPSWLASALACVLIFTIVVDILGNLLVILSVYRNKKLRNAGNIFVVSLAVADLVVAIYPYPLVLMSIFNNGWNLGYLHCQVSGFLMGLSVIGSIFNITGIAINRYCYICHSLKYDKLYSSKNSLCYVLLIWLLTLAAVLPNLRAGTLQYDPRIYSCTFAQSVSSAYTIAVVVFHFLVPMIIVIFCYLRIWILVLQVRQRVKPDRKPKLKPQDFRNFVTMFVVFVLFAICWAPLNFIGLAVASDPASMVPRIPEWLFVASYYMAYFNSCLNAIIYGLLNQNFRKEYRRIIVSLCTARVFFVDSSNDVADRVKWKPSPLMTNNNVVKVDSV
Description: as §1

| Compound | cytotoxicity / cell death (LDH release) (primary cortical neurons) | inhibition at 10 µM (MC3) | inhibition at 10 µM [1] | BDNF expression over the control (DMSO) (BDNF expression; 12-24 hours after treatment) | increase in BDNF expression (BDNF expression; after a 6 hour incubation period, DA001 pre-treatment 24 hrs, NMDA 20 μM) | reduction of cell death [2] | inhibition at 10 µM [3] | reduction of cell death compared to DMSO control ([4]; DA001 10 μg/ml, LDH release) | Ki ([5]; MC1) | IC50 ([5]; MC1, 8 concentrations, α-MSH binding) | inhibition at 10 µM ([5]; MC1, DA001 10 μM, duplicate, 125I-NDP-α-MSH, read-out: % inhibition of control specific binding) | inhibition at 10 µM (MC5) | Ki ([6]; MC4) | IC50 ([6]; MC4, 8 concentrations, α-MSH binding) | inhibition at 10 µM ([6]; MC4, DA001 10 μM, duplicate, 125I-NDP-α-MSH, read-out: % inhibition of control specific binding) | inhibition at 10 µM (melatonin (MT1) receptor) | reduction of cell death compared to DA001 [4] | protection of cortical neurons against NMDA insult (cell death) ([4]; derivatives at 30 μM (DA026 at 10 μM), FIG. 12) |
| --- | --- | --- | --- | --- | --- | --- | --- | --- | --- | --- | --- | --- | --- | --- | --- | --- | --- | --- |
| C=C(C)[C@@H]1CC[C@]2(C(=O)O)CC[C@]3(C)C(CC[C@@H]4[C@@]5(C)CC[C@H](O[C@@H]6OC[C@H](O)[C@H](O)[C@H]6O[C@@H]6O[C@@H](C)[C@H](O)[C@@H](O)[C@H]6O)[C@@](C)(CO)[C@@H]5CC[C@]43C)[C@@H]12 (stereo partly drawn) [DA001, 3-O-[α-L-rhamnopyranosyl-(1→2)-α-L-arabinopyranosyl]-3,23-dihydroxy-20(29)-lupen-28-oic acid] | No obvious cell death was observed at all doses examined; also recorded: did not induce cytotoxicity and cell death at all concentrations examined; also recorded: no significant toxicity was observed | 12% | -12% | 3-4 fold | 5 fold | ~80% | -9% | more than 60% | 5.2 µM | 10 µM | 64% | 11% | 6.3 µM | 6.8 µM | 59% | 28% | – | – |
| C=C(C)[C@@H]1CC[C@]2(C(=O)O)CC[C@]3(C)C(CC[C@@H]4[C@@]5(C)CC[C@H](O)[C@@](C)(CO)[C@@H]5CC[C@]43C)[C@@H]12 (stereo partly shown) [DA002, 3,23-Dihydroxy-20(29)-lupen-28-oic acid] | – | – | – | – | – | – | – | – | – | – | – | – | – | – | – | – | reduced cell death prominently compared to DA001 | – |
| C=C(C)C1CCC2(C(N)=O)CCC3(C)C(CCC4C5(C)CCC(O)C(C)(CO)C5CCC43C)C12 (stereo not shown) [DA021, 3,23-Dihydroxy-20(29)-lupen-28-iminol] | – | – | – | – | – | – | – | – | – | – | – | – | – | – | – | – | reduced cell death prominently compared to DA001 | showed promising protective effect |
